Results: patent US20250163057A1, “DCN-1 MODULATING COMPOUNDS AND METHODS OF USE THEREOF” (Cellarity, Inc., priority 2023, published 2025)

Legend:
Format in all cases: in vivo, NBSGW mice reconstituted with human CD34+ cells
[1] = tested on: fetal hemoglobin protein (HbF) in human erythroid progenitor cells; assay: Humanized mouse model: HbF protein in bone marrow by AlphaLISA; details: for HbF protein levels (AlphaLISA) normalized for % GlyA+ cells: FIG. 10B, most treatment groups
From the text: (§1) Results: To evaluate induction of target cell activity in the bone marrow, a humanized mouse model was developed. This model entails the reconstitution of human hematopoietic progenitor cells within the bone marrow of immunodeficient nonirradiated NOD.Cg-KitW-41J Tyr^+ Prkdc^scid Il2rg^tmlwjl/ThomJ (NBSGW) strain recipient mice. These mice are competent to engraft and differentiate human erythroid progenitor cells that express human adult hemoglobin mRNA and protein subunits within bone marrow.
(§2) Based on these exposure results, humanized mice were treated with either the clinical standard of care compound, hydroxyurea (50 mg/kg; bid), or I-73, at 25 and 100 mg/kg (bid), by oral gavage over a three-week period. At the end of the treatment period, bone marrow was harvested for flow cytometry, as well as for assessment of HbF protein and fetal hemoglobin (HBG1) mRNA levels. Levels of both HbF protein and HBG1 mRNA were normalized to the percentage of human erythroid progenitor cells in the bone marrow of each mouse as determined by immunofluorescence staining for human Glycophorin A cell membrane expression. […] In addition, relative levels of fetal hemoglobin to those of potentially sickling-prone adult hemoglobin (HBB) was assessed.
(§3) Female, 6-week-old NOD.Cg-Kit^W-41J Tyr^+ Prkdc^scid Il2rg^tm1Wjl/ThomJ (NBSGW) mice (Jackson Laboratory strain #[…]) were used for these studies. The mice were acclimatized to laboratory conditions for 5 days prior to inoculation.
(§4) GCSF-mobilized human CD34+ cells were removed from liquid nitrogen storage, thawed in a 37° C. water bath and transferred quickly into a 50 mL conical tube. Cryovial was rinsed once with thaw buffer, 0.1% BSA in phosphate buffered saline (PBS), and buffer was transferred and combined with the original contents in the 50 mL conical tube. Next, doubling volumes of thaw buffer was added to the conical and gently swirled for ˜30 seconds to one minute until the volume in the conical was 32 mL. Cells and buffer were centrifuged at 300G for 8 minutes, and the supernatants were aspirated. Cells were counted by resuspending in 1 mL of thawing buffer per million of cells to a target concentration range of 0.5 to 2M/ml and counting with AOPI (1:1) on a luna cell counter to confirm the concentration of cells/mL. The cell concentration was adjusted to 3×10^6 cells/ml. For each mouse, 300 thousand cells in 0.1 ml were injected into the tail vein with a 25-gauge needle.
(§5) On day 56 after human cell adoptive transfer, whole blood was collected from each mouse by submandibular bleed and a 100 μL sample of EDTA whole blood was transferred to a 2 ml tube containing 1.8 mL ACK Lysing Buffer at room temperature (RT), and then inverted to mix. Samples were incubated at RT for 15 min in the dark to lyse. After lysis, samples are centrifuged at 500×g for 5 minutes at RT to enable supernatant decanting. Remaining cells were washed with 1 mL of PBS-0.5% BSA and centrifuged at 500×g for 5 minutes at 4° C. Supernatant was decanted and cells were stained with leukocyte markers (human and mouse CD45 antibodies; BD347464, BD557659) to confirm human cell engraftment. Mice having less than one percent, or greater than ten percent, human CD45 positive cells were excluded from the subsequent study. Remaining mice were then randomized into treatment groups based on percentage of human cell engraftment. Each treatment group included 10-11 mice.
(§6) Compound I-73 was dissolved in a 5% Cremophor RH40, 20% hydroxylpropyl-β-cyclodextrin solution. Hydroxyurea was solubilized in PBS. Formulations were prepared fresh daily. Commencing on day 84 post human cell engraftment, mice were treated by oral gavage with either I-73, hydroxyurea or their respective vehicles, for a period of three weeks using either once daily (QD) or twice daily (BID) dosing regimens. Mice were monitored daily for body weight and condition. […]

[2] = tested on: fetal hemoglobin gene expression (HBG1) in human erythroid progenitor cells; assay: Humanized mouse model: fetal hemoglobin mRNA (HBG1, HBB) in bone marrow by Nanostring; details: for HBG1 expression compared to vehicle (HBG1 alone or HBG1 to total beta hemoglobin mRNA): FIGS. 11A-11C, various doses and treatment regimes
From the text: as §1, §2, §3, §4, §5, §6

[3] = tested on: HbF in GlyA+ human erythroid precursor cells; assay: Humanized mouse model: F-cells (GlyA+ cells with detectable HbF) by flow cytometry; details: FIG. 10A, all treatment groups
Description: FIG. 5 is FACS results showing the percentage of GlyA+ cells which also have detectable HbF protein levels in them (called F-cells).
as §3
as §4, with “Cells and buffer were centrifuged at 300G for 8 minutes, and the supernatants were aspirated.” left out, “The cell concentration was adjusted to 3×10^6 cells/ml. For each mouse, 300 thousand cells in 0.1 ml were injected into the tail vein with a 25-gauge needle.” left out
Compound I-73 was dissolved in a 5% Cremophor RH40, 20% hydroxylpropyl-β-cyclodextrin solution. […] Mice were monitored daily for body weight and condition. […]
After 21 days of dosing, all mice were euthanized and prepared for bone marrow collection. […] Extracted cells were counted and aliquoted to prepare for analysis. […]

[4] = humanized mouse model, human erythroid progenitor cells, dose not given at this place

SMILES	HbF protein levels in bone marrow (AlphaLISA) compared to vehicle-treated mice ([1]; 25 and 100 mg/kg bid, oral gavage, three weeks, normalized to % GlyA+ cells (FIG. 1A))	HbF protein levels (AlphaLISA) normalized for % GlyA+ cells [1]	difference in HbF protein levels between the 25 and the 100 mg/kg doses ([1]; bid, oral gavage, three weeks)	induction of fetal hemoglobin protein (HbF) [1, 4]	HBG1 mRNA transcript levels (Nanostring) ([2]; 25 and 100 mg/kg bid, oral gavage, three weeks (FIG. 1B))	ratios of HBG1 to HBB mRNA compared with hydroxyurea (50 mg/kg bid) ([2]; 25 and 100 mg/kg bid, oral gavage, three weeks (FIG. 1C))	HBG1 expression compared to vehicle (HBG1 alone or HBG1 to total beta hemoglobin mRNA) [2]	induction of fetal hemoglobin mRNA (HBG1) [2, 4]	ratio of fetal HBG1 hemoglobin mRNA to adult hemoglobin mRNA (HBB), compared with HU ([2]; humanized mouse model, dose not given at this place)	percentage of HbF expression in GlyA+ cells (F-cell analysis) [3]
CCN1C(=O)[C@@H](NC(=O)c2cccc(C(F)(F)F)c2)[C@@H](c2ccc(F)cc2)c2c([C@@H](C)NC#N)nn(-c3ccccc3)c21 [Compound I-73, N-((4S,5S)-3-((R)-1-cyanamidoethyl)-7-ethyl-4-(4-fluorophenyl)-6-oxo-1-phenyl-4,5,6,7-tetrahydro-1H-pyrazolo[3,4-b]pyridin-5-yl)-3-(trifluoromethyl)benzamide]	significantly increases	increased HbF protein levels	no significant difference	an induction of both HBG1 mRNA and HbF protein was observed	enhanced transcript levels	significantly greater ratios	increased HBG1 expression compared to vehicle	an induction of both HBG1 mRNA and HbF protein was observed	significantly greater than HU standard of care	increased percentage of HbF expression in GlyA+ cells
CCN1C(=O)[C@@H](NC(=O)c2cccc(C(F)(F)F)c2)[C@@H](C2CC2)c2c(C(=O)N3[C@H](C#N)C[C@H]4C[C@H]43)nn(C3CCOCC3)c21 [Compound I-256, N-((4S,5S)-3-((1R,3S,5R)-3-cyano-2-azabicyclo[3.1.0]hexane-2-carbonyl)-4-cyclopropyl-7-ethyl-6-oxo-1-(tetrahydro-2H-pyran-4-yl)-4,5,6,7-tetrahydro-1H-pyrazolo[3,4-b]pyridin-5-yl)-3-(trifluoromethyl)benzamide]		increased HbF protein levels					increased HBG1 expression compared to vehicle			increased percentage of HbF expression in GlyA+ cells
